According to EP4711361A1, “NITROGEN-CONTAINING HETEROCYCLIC COMPOUND AND USE THEREOF” (Jiangsu Deyuan Pharmaceutical Co.,Ltd., priority 2023, dated 2024):
Read-outs that look alike come from different tables or passages of the source.

Columns and labels:
[1] = target: T1, CYP2C19 (Homo sapiens, UniProt P33261); assay: Human liver microsome CYP inhibition assay, CYP2C19; format: in vitro ADME
T1 construct: Mixed human liver microsomes (HLM) were purchased from Corning Inc; tissue Corning Inc; host or cells: pooled (mixed) human liver microsomes
T1 sequence (P33261 whole entry): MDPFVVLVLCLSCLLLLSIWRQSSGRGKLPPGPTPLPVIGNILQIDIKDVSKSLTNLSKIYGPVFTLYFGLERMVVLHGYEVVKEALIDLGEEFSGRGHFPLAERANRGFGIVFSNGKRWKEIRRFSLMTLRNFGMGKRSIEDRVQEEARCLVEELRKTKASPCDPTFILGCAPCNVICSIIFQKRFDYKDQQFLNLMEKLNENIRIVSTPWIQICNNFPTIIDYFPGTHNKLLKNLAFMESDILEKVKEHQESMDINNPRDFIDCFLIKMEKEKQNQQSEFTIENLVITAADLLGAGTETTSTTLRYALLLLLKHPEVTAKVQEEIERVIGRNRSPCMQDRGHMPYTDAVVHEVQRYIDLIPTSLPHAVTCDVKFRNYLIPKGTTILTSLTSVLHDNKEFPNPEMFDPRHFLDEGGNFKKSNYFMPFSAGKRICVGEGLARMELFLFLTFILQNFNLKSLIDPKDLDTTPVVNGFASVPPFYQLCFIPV
Experimental: (§1) Experimental objective: To evaluate the inhibitory activity of the test substance on human liver microsomal cytochrome P450 isoenzymes (CYP1A2, CYP2C9, CYP2C19, CYP2D6, CYP3A4) using a 5-in-1 probe substrate for CYP isoenzymes.
(§2) Mixed human liver microsomes (HLM) were purchased from Corning Inc. (Steuben, New York, USA) and stored at temperatures below -70°C prior to use.
(§3) The working solution of the test substance, which had been diluted to a series of concentrations, was added to an incubation system containing human liver microsomes, probe substrates, and auxiliary factors of the circulatory system. A control containing solvent but no test substance served as an enzyme activity control (100%). The concentration of metabolites produced from probe substrates in the samples was determined using Liquid Chromatography-Tandem Mass Spectrometry (LC-MS/MS) method. Non-linear regression analysis of the average percentage activity of the test substance against its concentration was conducted using SigmaPlot (V.11). The IC50 values were calculated using a three-parameter or four-parameter inverse log equation. Table 10: Cytochrome P450 isoenzyme half maximal inhibitory concentration IC50 (µM)

[2] = target: T2, human CYP11B2 (Homo sapiens, UniProt P19099); assay: In vitro activity assay of monoclonal cells overexpressing human CYP11B2; format: cell-based; settings: G402 cells overexpressing human CYP11B2; 1 µM 11-deoxycorticosterone, 16 hours; aldosterone by LC-MS/MS
T2 construct: expressed in transfected cells; host or cells: human renal leiomyoma G402 cells (monoclonal)
T2 sequence (P19099 25-503): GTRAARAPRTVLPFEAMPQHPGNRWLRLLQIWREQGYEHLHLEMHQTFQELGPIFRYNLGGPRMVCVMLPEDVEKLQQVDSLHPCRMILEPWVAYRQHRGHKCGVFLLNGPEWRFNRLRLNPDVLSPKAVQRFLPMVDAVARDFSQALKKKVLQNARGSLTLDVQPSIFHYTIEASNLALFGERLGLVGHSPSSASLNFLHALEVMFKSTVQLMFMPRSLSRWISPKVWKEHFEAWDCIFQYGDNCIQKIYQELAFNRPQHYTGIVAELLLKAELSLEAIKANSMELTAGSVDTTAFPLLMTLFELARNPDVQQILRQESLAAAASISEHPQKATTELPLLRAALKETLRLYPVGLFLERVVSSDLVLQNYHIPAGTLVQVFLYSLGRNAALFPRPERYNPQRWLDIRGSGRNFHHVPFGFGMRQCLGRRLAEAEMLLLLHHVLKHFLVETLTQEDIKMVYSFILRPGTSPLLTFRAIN
Experimental: The human renal leiomyoma G402 cell line overexpressing human CYP11B2 was selected to serve as a compound activity screening system. Table 1: Cell and reagent information
2) Compound details: The test compound was prepared as a 10 µM working concentration using DMSO. 3) Experimental procedure
Day 1: Cells were digested, and human renal leiomyoma G402 cells overexpressing human CYP11B2 were resuspended to 1×10^5 cells/mL, with 100 µL seeded into a 96-well plate.
(§4) Day 3: The cell supernatant was collected and added to 200 µL of a methanol solution containing internal standards (internal standards: 35 ng/mL ketoprofen or 7.5 ng/mL carbamazepine or 5 ng/mL diphenhydramine or 10 ng/mL tolbutamide). The mixture was vortexed and centrifuged (4000×g, 4°C, 5 minutes). Then, 100 µL of the supernatant was taken and mixed with 100 µL of pure water.
Ratio = Aldosterone peak area/Internal standard peak area [formula] Control activity% = (Ratiotestcompound/RatioDMSO) × 100% [formula]
(§5) "Ratio test compound" represents the Ratio values at different concentrations of the test compound.
(§6) "Ratio DMSO" represents the Ratio value without the addition of the test compound. • X = Log (compound concentration) • Y = Control activity%
The IC50 of the test compound was determined by fitting to a nonlinear regression equation using XLfit 5.5.0. Table 3: Results for in vitro activity assay of monoclonal cells overexpressing human CYP11B2

[3] = target: T3, CYP1A2 (Homo sapiens, UniProt P05177); assay: Human liver microsome CYP inhibition assay, CYP1A2; format: in vitro ADME
T3 construct: Mixed human liver microsomes (HLM) were purchased from Corning Inc; tissue Corning Inc; host or cells: pooled (mixed) human liver microsomes
T3 sequence (P05177 whole entry): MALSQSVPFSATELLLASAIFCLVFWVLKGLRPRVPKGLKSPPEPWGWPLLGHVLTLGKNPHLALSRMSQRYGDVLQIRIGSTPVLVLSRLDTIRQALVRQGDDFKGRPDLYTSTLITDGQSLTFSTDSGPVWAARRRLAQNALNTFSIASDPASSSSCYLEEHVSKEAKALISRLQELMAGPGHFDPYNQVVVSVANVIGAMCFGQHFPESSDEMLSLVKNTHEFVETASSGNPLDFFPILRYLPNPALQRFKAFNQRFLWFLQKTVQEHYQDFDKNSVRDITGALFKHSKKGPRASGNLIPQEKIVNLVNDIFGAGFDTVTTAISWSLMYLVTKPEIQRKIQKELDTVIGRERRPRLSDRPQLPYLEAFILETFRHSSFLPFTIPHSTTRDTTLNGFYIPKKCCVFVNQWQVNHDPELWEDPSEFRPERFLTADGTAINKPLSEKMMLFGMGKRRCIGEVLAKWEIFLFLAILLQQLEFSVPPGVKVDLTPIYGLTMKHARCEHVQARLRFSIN
Experimental: as §1, §2, §3

[4] = target: T4, CYP2D6 (Homo sapiens, UniProt P10635); assay: Human liver microsome CYP inhibition assay, CYP2D6; format: in vitro ADME
T4 construct: Mixed human liver microsomes (HLM) were purchased from Corning Inc; tissue Corning Inc; host or cells: pooled (mixed) human liver microsomes
T4 sequence (P10635 whole entry): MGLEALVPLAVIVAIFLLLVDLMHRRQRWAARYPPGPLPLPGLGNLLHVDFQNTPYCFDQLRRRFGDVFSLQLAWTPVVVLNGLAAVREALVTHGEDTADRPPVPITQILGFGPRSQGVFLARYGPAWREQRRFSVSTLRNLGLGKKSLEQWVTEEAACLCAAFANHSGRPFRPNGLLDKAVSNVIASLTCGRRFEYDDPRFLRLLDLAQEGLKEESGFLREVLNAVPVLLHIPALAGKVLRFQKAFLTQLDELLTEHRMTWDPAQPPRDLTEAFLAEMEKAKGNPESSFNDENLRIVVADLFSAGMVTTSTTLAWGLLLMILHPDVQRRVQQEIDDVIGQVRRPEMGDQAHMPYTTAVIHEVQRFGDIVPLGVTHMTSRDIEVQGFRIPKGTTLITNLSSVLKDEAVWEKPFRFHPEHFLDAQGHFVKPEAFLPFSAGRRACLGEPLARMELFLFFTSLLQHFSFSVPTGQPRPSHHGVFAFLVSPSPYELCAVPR
Experimental: as §1, §2, §3

[5] = target: T5, CYP2C9 (Homo sapiens, UniProt P11712); assay: Human liver microsome CYP inhibition assay, CYP2C9; format: in vitro ADME
T5 construct: Mixed human liver microsomes (HLM) were purchased from Corning Inc; tissue Corning Inc; host or cells: pooled (mixed) human liver microsomes
T5 sequence (P11712 whole entry): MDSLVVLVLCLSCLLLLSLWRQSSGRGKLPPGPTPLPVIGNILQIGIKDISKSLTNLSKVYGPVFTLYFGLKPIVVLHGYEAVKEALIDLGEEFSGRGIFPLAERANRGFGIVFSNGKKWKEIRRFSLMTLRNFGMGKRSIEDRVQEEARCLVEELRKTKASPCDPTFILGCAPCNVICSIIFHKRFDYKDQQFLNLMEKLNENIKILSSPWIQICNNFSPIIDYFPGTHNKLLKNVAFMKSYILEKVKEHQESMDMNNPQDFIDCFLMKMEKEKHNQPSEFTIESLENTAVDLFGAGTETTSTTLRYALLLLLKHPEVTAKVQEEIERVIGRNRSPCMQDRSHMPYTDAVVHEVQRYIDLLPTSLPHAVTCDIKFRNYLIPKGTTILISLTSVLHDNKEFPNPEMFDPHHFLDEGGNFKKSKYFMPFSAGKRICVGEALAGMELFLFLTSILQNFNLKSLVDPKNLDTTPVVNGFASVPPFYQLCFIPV
Experimental: as §1, §2, §3

[6] = target: T6, human CYP11B1 (Homo sapiens, UniProt P15538); assay: In vitro activity assay of monoclonal cells overexpressing human CYP11B1; format: cell-based; settings: G402 cells overexpressing human CYP11B1; 1 µM 11-deoxycortisol, 16 hours; cortisol by LC-MS/MS
T6 construct: expressed in transfected cells; host or cells: human renal leiomyoma G402 cells (monoclonal)
T6 sequence (P15538 25-503): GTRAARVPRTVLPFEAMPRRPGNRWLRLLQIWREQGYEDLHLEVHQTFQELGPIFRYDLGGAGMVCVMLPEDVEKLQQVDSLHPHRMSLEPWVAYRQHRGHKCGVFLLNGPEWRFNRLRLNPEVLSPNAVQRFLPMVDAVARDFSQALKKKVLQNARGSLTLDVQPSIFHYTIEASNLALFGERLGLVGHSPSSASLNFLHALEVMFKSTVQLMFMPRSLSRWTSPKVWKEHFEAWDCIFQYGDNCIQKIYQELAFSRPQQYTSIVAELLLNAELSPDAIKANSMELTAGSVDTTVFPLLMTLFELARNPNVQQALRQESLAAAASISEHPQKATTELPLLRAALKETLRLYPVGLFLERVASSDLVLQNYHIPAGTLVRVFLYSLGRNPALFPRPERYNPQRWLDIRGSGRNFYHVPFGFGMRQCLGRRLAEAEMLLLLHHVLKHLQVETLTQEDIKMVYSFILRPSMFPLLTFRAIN
Experimental: The human renal leiomyoma G402 cell line overexpressing human CYP11B1 was selected to serve as a compound selectivity screening system.
Day 1: Cells were digested, and human renal leiomyoma G402 cells overexpressing CYP11B1 were resuspended to 1×10^5 cells/mL, with 100 µL seeded into a 96-well plate.
as §4
Ratio = Cortisol peak area/Internal standard peak area [formula] Control activity% = (Ratiotestcompound/RatioDMSO) × 100% [formula]
as §5, §6
The IC50 of the test compound was determined by fitting to a nonlinear regression equation using XLfit 5.5.0. Table 4: Results for in vitro activity assay of monoclonal cells overexpressing human CYP11B1

[7] = target: T7, CYP3A4 (Homo sapiens, UniProt P08684); assay: Human liver microsome CYP inhibition assay, CYP3A4; format: in vitro ADME
T7 construct: Mixed human liver microsomes (HLM) were purchased from Corning Inc; tissue Corning Inc; host or cells: pooled (mixed) human liver microsomes
T7 sequence (P08684 whole entry): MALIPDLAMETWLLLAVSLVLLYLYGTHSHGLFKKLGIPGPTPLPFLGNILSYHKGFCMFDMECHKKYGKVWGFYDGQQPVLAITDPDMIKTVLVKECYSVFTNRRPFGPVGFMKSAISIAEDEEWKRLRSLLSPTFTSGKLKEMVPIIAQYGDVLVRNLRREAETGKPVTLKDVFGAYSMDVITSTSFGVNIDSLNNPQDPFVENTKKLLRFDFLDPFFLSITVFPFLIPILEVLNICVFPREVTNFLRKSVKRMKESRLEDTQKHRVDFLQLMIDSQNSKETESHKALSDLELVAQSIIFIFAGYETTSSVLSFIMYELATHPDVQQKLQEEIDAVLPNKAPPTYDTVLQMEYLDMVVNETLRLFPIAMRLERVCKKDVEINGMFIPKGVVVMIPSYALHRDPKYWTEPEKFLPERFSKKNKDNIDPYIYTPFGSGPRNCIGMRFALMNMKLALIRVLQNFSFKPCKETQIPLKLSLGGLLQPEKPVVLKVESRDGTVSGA
Experimental: as §1, §2, §3

Compound `CCC(=O)N[C@@H]1CCCc2c(-c3ccc4c(ccc(=O)n4C)c3)cncc21` (single isomer, unassigned) [Compound 001] has an IC50 ([1]; mixed human liver microsomes, 5-in-1 probe substrate, read-out: Cytochrome P450 isoenzyme half maximal inhibitory concentration IC50 (µM) CYP2C19) of over 50 µM, an IC50 [2] of 12 nM and an IC50 ([3]; mixed human liver microsomes, 5-in-1 probe substrate, read-out: Cytochrome P450 isoenzyme half maximal inhibitory concentration IC50 (µM) CYP1A2) of over 50 µM. For the same compound, the IC50 ([4]; mixed human liver microsomes, 5-in-1 probe substrate, read-out: Cytochrome P450 isoenzyme half maximal inhibitory concentration IC50 (µM) CYP2D6) was over 50 µM, the IC50 ([5]; mixed human liver microsomes, 5-in-1 probe substrate, read-out: Cytochrome P450 isoenzyme half maximal inhibitory concentration IC50 (µM) CYP2C9) was over 50 µM and the IC50 [6] was 2470 nM. For the same compound, the IC50 ([7]; mixed human liver microsomes, 5-in-1 probe substrate, read-out: Cytochrome P450 isoenzyme half maximal inhibitory concentration IC50 (µM) CYP3A4) was over 50 µM.
`CCC(=O)NC1CCCc2c(-c3cc4ccc(=O)n(C)c4s3)cncc21` (single isomer, unassigned) [Compound 023] showed an IC50 [1] of over 50 µM, an IC50 [2] of 12.5 nM and an IC50 [3] of over 50 µM. For the same compound, the IC50 [4] was over 50 µM, the IC50 [5] was over 50 µM and the IC50 [6] was 1740 nM. For the same compound, the IC50 [7] was over 50 µM.
For `CCC(=O)NC1CCCc2c(-c3cc4c(s3)N(C)C(=O)CC4)cncc21` (single isomer, unassigned) [Compound 017], the IC50 [1] was over 50 µM, the IC50 [2] was 2.09 nM and the IC50 [3] was over 50 µM. It also gave an IC50 [4] of over 50 µM, an IC50 [5] of 45.1 µM and an IC50 [6] of 322 nM. The IC50 [7] was over 50 µM.
